# Columns and labels:
# [1] = test system: wheat cv. Recital; test: Test I safening of Compound 6 by Harmony Extra Herbicide, pre-/postemergence; type: in vivo, Triticum aestivum
# Procedure: This test evaluated the safening of Compound 6 on barley (Hordeum vulgare L.) cv. ‘Boone’ and wheat (Triticum aestivum L.) cv. ‘Recital’ by Harmony® Extra Herbicide, which comprises 50 wt % thifensulfuron-methyl and 25 wt % tribenuron-methyl. Barley and wheat seeds were planted in pots containing a pasteurized blend of Matapeake soil and sand. For postemergence testing the plants were grown 10 days so the barley seedlings were at the 2-leaf stage and the wheat seedlings were at the 2-3-leaf stage at time of treatment. Preemergence treatments were applied the day after the seeds were planted. Treatments were applied by spraying Compound 6 and/or […] in a non-phytotoxic solvent mixture, using flat fan nozzle and a spray volume of 280 L/ha. The treatments were triply replicated and the results subsequently averaged. The pots were placed on a greenhouse bench using a complete randomized block design except for the first replicate, which was unrandomized. The plants were grown in the greenhouse and watered as needed with a dilute nutrient solution containing 200 ppm of N. Illumination was daylight supplemented by artificial sources to maintain a photoperiod of 14 hours. The temperature was maintained at 23±2° C. during the day and 17±2° C. at night. The effects of the treatments were rated 25 days after preemergence treatment and 15 days after postemergence treatment. The plant response was visually rated in comparison to untreated controls using a scale of 0 to 100, with 0 representing no effect and 100 representing complete plant death.
# Colby's Equation was used to calculate the expected additive herbicidal effect of the mixtures of Compound 6 with Harmony® Extra (i.e. a 2:1 mixture by weight of thifensulfuron-methyl and tribenuron-methyl). Colby's Equation (Colby, S. R. “Calculating Synergistic and Antagonistic Responses of Herbicide Combinations,” Weeds, 15(1), pp 20-22 (1967)) calculates the expected additive effect of herbicidal mixtures, and for two active ingredients is of the form: Pa+b=Pa+Pb−(PaPb/100) wherein • Pa+b is the percentage effect of the mixture expected from additive contribution of the individual components, • Pa is the observed percentage effect of the first active ingredient at the same use rate as in the mixture, and • Pb is the observed percentage effect of the second active ingredient at the same use rate as in the mixture.
# The results and additive effects expected from Colby's Equation for the preemergence test are listed in Table I1, and the results and additive effects expected from Colby's Equation for the postemergence test are listed in Table I2.
# [2] = test system: common chickweed; test: Test F pre-/postemergence herbicide test; type: in vivo, Stellaria media
# Description: (§1) Seeds of plant species selected from annual blugrass (Poa annua L.), blackgrass (Alopecurus myosuroides Huds.), catchweed bedstraw (Gallium aparine L.), common chickweed (Stellaria media (L.) Vill./Cyr.), downy bromegrass (Bromus tectorum L.), green foxtail (Setaria viridis (L.) Beauv.), Italian ryegrass (Lolium multiflorum Lam.), kochia (Kochia scoparia (L.). Schrad.), lambsquarters (Chenopodium album L.), littleseed canarygrass (Phalaris minor Retz.), pigweed (Amaranthus retroflexus L.), Russian thistle (Salsola kali L. ssp. Ruthenica (Iljin) Soo), wild buckwheat (Polygonum convolvulus L.), wild mustard (Sinapis arvensis L.), wild oat (Avena fatua L.), windgrass (Apera spica-venti (L.) Beauv.), winter barley (Hordeum vulgare L.), and wheat (Triticum aestivum L.) were planted and treated preemergence with test chemicals formulated in a non-phytotoxic solvent mixture which included a surfactant.
# (§2) At the same time, plants selected from these crop and weed species were treated with postemergence applications of some of the test chemicals formulated in the same manner. Plants ranged in height from 2 to 18 cm (1- to 4-leaf stage) for postemergence treatments. Treated plants and controls were maintained in a greenhouse for 12 to 14 days, after which time all species were compared to controls and visually evaluated. Plant response ratings, summarized in Table F, are based on a scale of 0 to 100 where 0 is no effect and 100 is complete control. A dash (-) response means no test result.
# [3] = test system: lambsquarters; test: Test F pre-/postemergence herbicide test; type: in vivo, Chenopodium album
# Description: as §1, §2
# [4] = test system: wild oat; test: Test F pre-/postemergence herbicide test; type: in vivo, Avena fatua
# Description: as §1, §2
smiles,measurement,setting,value
"CCn1nc(C(C)(C)C)cc1C(=O)Nc1cc(C(=O)N(C)C)ccc1F [Compound 6, N-[5-[(dimethylamino)carbonyl]-2-fluorophenyl]-3-(1,1-dimethylethyl)-1-ethyl-1H-pyrazole-5-carboxamide]",Wheat Observed effect,"[1]; postemergence, Compound 6 16, thifensulfuron-methyl 0, tribenuron-methyl 0 g a.i./ha",58
same,Wheat Observed effect,"[1]; postemergence, Compound 6 31, thifensulfuron-methyl 0, tribenuron-methyl 0 g a.i./ha",65
same,Wheat Observed effect,"[1]; preemergence, Compound 6 16, thifensulfuron-methyl 0, tribenuron-methyl 0 g a.i./ha",45
same,Wheat Observed effect,"[1]; preemergence, Compound 6 31, thifensulfuron-methyl 0, tribenuron-methyl 0 g a.i./ha",67
CCn1nc(C(C)(C)C)cc1C(=O)Nc1cc(C(=O)OC(C)C)c(F)cc1F [Compound 248],"Plant response rating (0-100), Chickweed","[2]; Postemergence, 31 g ai/ha",65
same,"Plant response rating (0-100), Chickweed","[2]; Postemergence, 62 g ai/ha",65
same,"Plant response rating (0-100), Chickweed","[2]; Postemergence, 125 g ai/ha",98
same,"Plant response rating (0-100), Chickweed","[2]; Postemergence, 250 g ai/ha",100
same,"Plant response rating (0-100), Chickweed","[2]; Preemergence, 31 g ai/ha",100
same,"Plant response rating (0-100), Chickweed","[2]; Preemergence, 62 g ai/ha",100
same,"Plant response rating (0-100), Chickweed","[2]; Preemergence, 125 g ai/ha",100
same,"Plant response rating (0-100), Chickweed","[2]; Preemergence, 250 g ai/ha",100
same,"Plant response rating (0-100), Lambsquarters","[3]; Postemergence, 31 g ai/ha",35
same,"Plant response rating (0-100), Lambsquarters","[3]; Postemergence, 62 g ai/ha",60
same,"Plant response rating (0-100), Lambsquarters","[3]; Postemergence, 125 g ai/ha",60
same,"Plant response rating (0-100), Lambsquarters","[3]; Postemergence, 250 g ai/ha",60
same,"Plant response rating (0-100), Lambsquarters","[3]; Preemergence, 31 g ai/ha",40
same,"Plant response rating (0-100), Lambsquarters","[3]; Preemergence, 62 g ai/ha",40
same,"Plant response rating (0-100), Lambsquarters","[3]; Preemergence, 125 g ai/ha",100
same,"Plant response rating (0-100), Lambsquarters","[3]; Preemergence, 250 g ai/ha",100
same,"Plant response rating (0-100), Oat, Wild","[4]; Postemergence, 31 g ai/ha",45
same,"Plant response rating (0-100), Oat, Wild","[4]; Postemergence, 62 g ai/ha",45
same,"Plant response rating (0-100), Oat, Wild","[4]; Postemergence, 125 g ai/ha",60
same,"Plant response rating (0-100), Oat, Wild","[4]; Postemergence, 250 g ai/ha",65
same,"Plant response rating (0-100), Oat, Wild","[4]; Preemergence, 31 g ai/ha",40
same,"Plant response rating (0-100), Oat, Wild","[4]; Preemergence, 62 g ai/ha",45
same,"Plant response rating (0-100), Oat, Wild","[4]; Preemergence, 125 g ai/ha",50
same,"Plant response rating (0-100), Oat, Wild","[4]; Preemergence, 250 g ai/ha",65
